Tests used:
[1] = system: aldolase antibodies 38C2 and 33F12; assay: inhibition of antibody aldolase activity by β-diketones; type: biochemical
Protocol: For ease of comparison we determined specific rates for these reactions under the following defined conditions: 1 M of donor, 500 mM of aldehyde 4 and 0.4 mol-% of antibody . […] A large variety of other ketones were also studied with aldehyde 4 with monitoring of the consumption of 4 and appearance of a new peak tentatively assigned as the β-hydroxyketone product. The antibody catalyzed aldol reactions were inhibited by addition of equimolar amounts of the hapten 1 or 2,4-pentanedione. Further control experiments were carried out using lysine or bovine serum albumin instead of the antibodies. […] Further study of mixed solvent systems may allow conditions to be defined where substrates such as these are accepted by the catalyst. Of the ketones studied, reactions involving hydroxyacetone as the donor were the most efficient.
No background reaction for the overall conversion of cyclopentanone to 35 in the absence of antibody could be observed following extended incubation for 2 months.
The reaction of 3-methyl-2,4-pentanedione was monitored spectrophotometrically by following the absorption of the antibody-enamine complex 3 now at 335 nm. […] Study of the dependence of the rate of enamine formation on pH with 2,4-pentanedione yielded the same pKa.

[2] = cited from earlier work; for pKa of the amino group: free in aqueous solution / water
[3] = control aldol reactions using lysine or bovine serum albumin instead of the antibodies; type: biochemical; settings: used instead of the antibodies
Protocol: For ease of comparison we determined specific rates for these reactions under the following defined conditions: 1 M of donor, 500 mM of aldehyde 4 and 0.4 mol-% of antibody .

[4] = amine catalyzed retro-aldolization of 59 in aqueous buffer and n-octanol; type: biochemical
Source text: Therefore the second order rate constants for n-butylamine and aminoacetonitrile catalyzed retro-aldolization of 59 where determined in aqueous buffer and n-octanol. […] The pka's of n-butylamine and aminoacetonitrile in water are 10.61 and 5.34 (Hupe, D. J.; Kendall, M. C. R.; Spencer, T. A. J. Am. Chem. Soc. 1972, 94, 1254). […] Antibody 38C2 provides a 106-108 fold enhancement of the efficiency of the retro-aldol reaction of 59 as compared to the non-enzymic amine catalyzed reactions in either aqueous or organic media. […] The effectiveness of the active site amine of 38C2 is also indicated by effective molarities between 560 and 35,000 M depending on the amine and solvent system studied.
The activation energy for this reaction should be […] in nonpolar solvents such as the active site of the antibody and n-octanol since the reaction involves charge dispersal in the transition state. A polar medium would be expected to stabilize the cationic iminium intermediates to a greater extent than the activated complex. (Reichardt, C., in Solvents and Solvents Effects in Organic Chemistry Ebel, H. F., Wentrup-Byne, E., Eds.; New York, N.Y., 1990, 2nd eddition, pp1-511; Heathcock, C. H. Stereoselective Aldol Condensations, in E. Buncel and T. Durst (eds): Comprehensive Carbanion Chemistry. Part B, P. 177ff. (particularly p. 198), Elsevier, Amsterdam 1984).

Row | Compound | pKa of the protons at the 3 position [2] | pKa of the amino group [2] | catalysis of the aldol reactions [3] | also measured
1 | CC(=O)CC(C)=O [2,4-pentanedione] | 8.87 | – | – | inhibition of ab 38C2 catalyzed elimination ([1]; elimination from 36 to 35): inhibited; inhibition of antibody catalyzed aldol reactions ([1]; equimolar amounts): inhibited
2 | CC(=O)C(C)C(C)=O [3-methyl-2,4-pentanedione] | 10.65 | – | – | inhibition of aldolase activity ([1]; stoichiometric reaction forming stable vinylogous amides): completely inhibiting aldolase activity
3 | N#CCN [aminoacetonitrile] | – | 5.34 | – | –
4 | NCCCC[C@H](N)C(=O)O [lysine] | – | around 10.5 | No catalysis | –
5 | CCCCN [n-butylamine] | – | 10.61 | – | catalysis in n-octanol compared to catalysis in aqueous solution [4]: 63 fold
6 | bovine serum albumin: control protein used instead of the antibodies | – | – | No catalysis | –

From patent publication US6589766B1, “Aldol consensations by catalytic antibodies” (The Scripps Research Institute, priority 1997, dated 2003)
